Source: US6562371B1, “Liposomes” (Terumo Kabushiki Kaisha, priority 1998, dated 2003)

Tested on: Anti-Thy-1 antibody nephritis rats
Experiment: Pharmacological effect: total protein content in urine
Type: in vivo, rat
Conditions: administered once i.v. on the fifth day after anti-Thy-1 antibody, urine collected on the tenth day
Experimental: Anti-Thy-1 antibody nephritis rats were prepared by intravenously administering an anti-Thy-1 antibody solution through the caudal vein of each CD (SD) male rat. On the fifth day after administration of the anti-Thy-1 antibody, the liposome dispersion liquid obtained in Preparation Example 15 (1 mg as prednisolone phosphate sodium) was administered by intravenous injection. On the tenth day after administration of the anti-Thy-1 antibody, urine was collected to measure the total protein content.
For the sake of comparison, the preparation of Comparative Example 1 (a liposome dispersion liquid having no included drug) or physiological saline was administered by the same method, and urine was collected on the tenth day after administration of the anti-Thy-1 antibody to measure the total protein content.
Also, a prednisolone phosphate sodium solution (1 mg as prednisolone phosphate sodium) which was not made into liposomes was administered once on the fifth day after administration of the anti-Thy-1 antibody, or five times (once a day for 5 days) started on the fifth day after administration of the anti-Thy-1 antibody, and urine was collected on the tenth day after administration of the anti-Thy-1 antibody to measure the total protein content.
Urine was also collected from un-treated normal rat to measure the total protein content.

Substance: prednisolone phosphate sodium
- effect on excretion of protein into urine (total protein content): no effect was found
